A short description of data set [1]: xn = mol fraction of the nth substance listed. The following applies: 100.2 kPa, Liquid, Pycnometric method.
For data set [2] the following is noted: 100.2 kPa, Liquid, Pycnometric method.

SMILES strings stand for the structures. Numbers after ± are expanded uncertainties.

A word on the mass density: it is the mass of a sample divided by its volume.

For the molecule `CCCCCCCCCC(=O)OCCN1CCN(CCCN2c3ccccc3Sc3ccc(C(F)(F)F)cc32)CC1` + O, the mass density came to 1000 ± 5 kg/m3 in data set [1] (298.2 K, x1 = 2.41e-07); 996 ± 6 kg/m3 in data set [1] (303.2 K, x1 = 3.11e-07); 993 ± 13 kg/m3 in data set [1] (308.2 K, x1 = 4.32e-07); 991 ± 2 kg/m3 in data set [1] (313.2 K, x1 = 5.86e-07); 989 ± 2 kg/m3 in data set [1] (318.2 K, x1 = 6.93e-07).

On to `O` [water], for which the mass density in data set [2] (298.2 K) came to 1000 ± 2 kg/m3; in data set [2] (303.2 K) it was 996 ± 2 kg/m3; in data set [2] (308.2 K), 993 ± 2 kg/m3; in data set [2] (313.2 K), 991 ± 2 kg/m3; in data set [2] (318.2 K), 989 ± 2 kg/m3.

The values are drawn from the NIST ThermoML archive (doi:10.1016/j.fluid.2014.01.044).
